In brackets after ≈: the same amount, converted by molar mass.
Legend:
Experiment in all cases: In vitro antibacterial activity, two-fold agar-plate dilution method
Format in all cases: cell-based
[1] = tested on: Staphylococcus aureus 209-P JC-1; details: HI-agar, 37° C., 20 hours
Protocol: (§1) In vitro antibacterial activity was determined by the two-fold agar-plate dilution method as described below. One loopful of an overnight culture of each test strain in Trypticase-soy broth (approximately 10^6 viable cells per ml.) was streaked on heat infusion agar (HI-agar) containing graded concentrations of antibiotics, and the minimal inhibitory concentration (MIC) was expressed in terms of μg./ml. after incubation at 37° C. for 20 hours.

[2] = tested on: Esherichia coli 327; details: HI-agar, 37° C., 20 hours
Protocol: as §1

[3] = tested on: Pseudmonas aeruginose NCTC-10490; details: HI-agar, 37° C., 20 hours
Protocol: as §1

[4] = tested on: Proteus mirabilis 525; details: HI-agar, 37° C., 20 hours
Protocol: as §1

[5] = tested on: Proteus vulgaris LAM-1025; details: LAM1025, HI-agar, 37° C., 20 hours
Protocol: as §1

MIC [1] | MIC [2] | MIC [3] | MIC [4] | MIC [5] | SMILES
3.13 µg/mL (≈ 6.09 µM) | 0.2 µg/mL (≈ 0.389 µM) | 12.5 µg/mL (≈ 24.3 µM) | 0.78 µg/mL (≈ 1.52 µM) | 25 µg/mL (≈ 48.7 µM) | CON=C(C(=O)NC1C(=O)N2C(C(=O)O)=C(CSc3nnnn3C)CS[C@H]12)C1=CSCCO1 (some centres unmarked) [compound 2, 7-[2-(2,3-dihydro-1,4-oxathiin-6-yl)-2-methoxyiminoacetamido]-3-(1-methyl-1H-tetrazol-5-yl)thiomethyl-3-cephem-4-carboxylic acid]
6.25 µg/mL (≈ 13.6 µM) | 0.78 µg/mL (≈ 1.7 µM) | 50 µg/mL (≈ 109 µM) | 0.78 µg/mL (≈ 1.7 µM) | 100 µg/mL (≈ 218 µM) | CON=C(C(=O)NC1C(=O)N2C(C(=O)O)=C(COC(N)=O)CS[C@H]12)C1=CSCCO1 (some centres unmarked) [compound 3, 7-[2-(2,3-dihydro-1,4-oxathiin-6-yl)-2-methoxyiminoacetamido]-3-carbamoyloxymethyl-3-cephem-4-carboxylic acid]

Second part, the compound before the results:

SMILES | MIC [1] | MIC [2] | MIC [3] | MIC [4] | MIC [5]
CO/N=C(\C(=O)NC1C(=O)N2C(C(=O)O)=C(COC(C)=O)CSC12)C1=CSCCO1 (centres unmarked) [compound 1, 7-[2-(2,3-dihydro-1,4-oxathiin-6-yl)-2-methoxyiminoacetamido]cephalosporanic acid] | 3.13 µg/mL (≈ 6.84 µM) | 0.78 µg/mL (≈ 1.7 µM) | 25 µg/mL (≈ 54.6 µM) | 0.78 µg/mL (≈ 1.7 µM) | 12.5 µg/mL (≈ 27.3 µM)
CON=C(C(=O)NC1C(=O)N2C(C(=O)O)=C(CSc3nncs3)CS[C@H]12)C1=CSCCS1 (some centres unmarked) [compound 4, 7-[2-(2,3-dihydro-1,4-dithiin-5-yl)2-methoxyiminoacetamido]-3-(1,3,4-thiadiazol-2-yl)thiomethyl-3-cephem-4-carboxylic acid] | 0.39 µg/mL (≈ 0.734 µM) | 0.78 µg/mL (≈ 1.47 µM) | 50 µg/mL (≈ 94 µM) | 3.13 µg/mL (≈ 5.89 µM) | 6.25 µg/mL (≈ 11.8 µM)
CON=C(C(=O)NC1C(=O)N2C(C(=O)O)=CCS[C@H]12)C1=CSCCS1 (some centres unmarked) [compound 5, 7-[2-(2,3-dihydro-1,4-dithiin-5-yl)-2-methoxyiminoacetamido]-3-cephem-4-carboxylic acid] | 6.25 µg/mL (≈ 15.6 µM) |  | 400 µg/mL (≈ 996 µM) |  | 3.13 µg/mL (≈ 7.8 µM)

Reference: patent US4242510A, “Cephalosporin compounds and processes for the preparation thereof” (Fujisawa Pharmaceutical Co., Ltd., priority 1976, dated 1980)
